Laboratory results: PubChem BioAssay (NCI)
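Protocol summary: plate cells (96-well), add compound at 5 concentrations, incubate 48 h, interpolate endpoints linearly. TGI is the concentration that stops growth completely.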

Key:
Assay in all cases: NCI tumour cell line growth inhibition, 48 h
[1] = system: SK-MEL-28 melanoma
[2] = system: HOP-62 NSCLC
[3] = system: HS 578T breast
[4] = system: RPMI-8226 leukemia
[5] = system: MOLT-4 leukemia
[6] = system: SK-OV-3 ovarian
[7] = system: MALME-3M melanoma
[8] = system: OVCAR-4 ovarian
[9] = system: HCC-2998 colon
[10] = system: NCI/ADR-RES ovarian
[11] = system: ACHN renal
[12] = system: MDA-MB-231 breast
[13] = system: NCI-H23 lung
[14] = system: NCI-H226 lung
[15] = system: M14 melanoma
[16] = system: DU-145 prostate
[17] = system: NCI-H460 lung
[18] = system: HT29 colon
[19] = system: SNB-19 CNS
[20] = system: SN12C renal
[21] = system: SF-268 CNS
[22] = system: OVCAR-5 ovarian
[23] = system: SW-620 colon
[24] = system: HOP-92 NSCLC
[25] = system: OVCAR-8 ovarian
[26] = system: IGROV1 ovarian
[27] = system: UACC-62 melanoma
[28] = system: HCT-116 colon
[29] = system: TK-10 renal
[30] = system: NCI-H522 lung
[31] = system: A549 NSCLC
[32] = system: T-47D breast
[33] = system: SR leukemia
[34] = system: KM12 colon
[35] = system: UACC-257 melanoma
[36] = system: SF-539 CNS
[37] = system: COLO 205 colon
[38] = system: UO-31 renal
[39] = system: CAKI-1 renal
[40] = system: SK-MEL-5 melanoma
[41] = system: 786-0 renal
[42] = system: HL-60(TB) leukemia
[43] = system: U251 CNS
[44] = system: K-562 leukemia
[45] = system: CCRF-CEM leukemia
[46] = system: SNB-75 CNS
[47] = system: PC-3 prostate
[48] = system: EKVX NSCLC
[49] = system: SF-295 CNS
[50] = system: BT-549 breast
[51] = system: MCF7 breast
[52] = system: MDA-N
[53] = system: OVCAR-3 ovarian
[54] = system: HCT-15 colon
[55] = system: A498 renal
[56] = system: SK-MEL-2 melanoma
[57] = system: LOX IMVI melanoma
[58] = system: MDA-MB-435
[59] = system: RXF 393 renal

Measured: TGI

O=C(O)COc1cc(-c2ccccc2)nc2cc(F)ccc12
not listed: [59]
> 100 µM: all other assays above

CN(Cc1cnc2nc(N)nc(N)c2n1)c1ccc(C(=O)NC(CO)CCCO)cc1 (configuration not stated)
not listed: [8] | [9] | [24] | [30] | [31]
> 100 µM: all other assays above

COc1cccc(N=N/C(=N\NC(=O)c2ccc(C)cc2)c2ccc(N(CCC#N)CCC#N)cc2C)c1
not listed: [27] | [30] | [42] | [45]
> 100 µM: all other assays above

CC(C)(C)[Si](C)(C)OCc1cccc(OCCOc2cccc(CO[Si](C)(C)C(C)(C)C)c2[N+](=O)[O-])c1[N+](=O)[O-]
not listed: [4] | [9] | [12] | [44]
> 100 µM: all other assays above
